What was measured:
Type in all cases: cell-based
BAG2 with mutant p53 = target: T1, BAG2 with mutant p53 (Homo sapiens, UniProt O95816); assay: Co-immunoprecipitation in T47D cells; conditions: 1 µM, 48 h
T1 construct: endogenous in cells; host or cells: T47D
Protocol: (§1) Cells were harvested, washed with PBS, and lysed using NP-40 lysis buffer. Protein A agarose beads (Thermo Fisher Scientific) were mixed with protein G agarose beads (Thermo Fisher Scientific) (4:1) and preincubated overnight at 4°C with anti-p53 or anti-BAG1 or control IgG antibody. Cellular extracts from X15695 treated and untreated cells (1,000 µg) were incubated with antibody-preincubated protein A/G agarose beads for 3 to 4 h at room temperature. The beads with immunoprecipitated proteins were collected at 4°C by centrifugation at 1,000 g for 5 min and washed 4 to 5 times with NP-40 lysis buffer. The immunoprecipitated proteins were eluted by heating in SDS sample buffer for 5 min at 95°C and resolved on SDS-PAGE. Thereafter, they were subjected to Western blot analysis to detect mortalin, BAG1, BAG2, BAG5 and p53. Cellular extracts containing 50 to 70 µg protein from X15695 treated and untreated cells were used as the input control for the targeted proteins.

BAG5 with mutant p53 = target: T2, BAG5 with mutant p53 (Homo sapiens, UniProt Q9UL15); assay: Co-immunoprecipitation in T47D cells; conditions: 1 µM, 48 h
T2 construct: endogenous in cells; host or cells: T47D
Protocol: as §1

AR = assay: Western blot of AR level in prostate cancer cells; conditions: LNCaP and 22Rv.1 cells, 24 h
Protocol: For Western blotting, cells were lysed in NP-40 lysis buffer (1% NP-40, 50 mM Tris-HCl, pH 8.0, 150 mM NaCl, 5 mM EDTA) or 1× passive lysis buffer (Promega, Germany) for 15 min on ice. Cell debris was removed by centrifugation at 13,000 rpm for 10 min and used for SDS-polyacrylamide gel electrophoresis (PAGE) and Western blotting.
Western Blotting was carried out using standard protocols with antibodies: p53 (clone DO1), p53 (Sp5, Thermo Fisher Scientific Karlsruhe, Germany), Mdm2 (4B2, Abcam, Cambridge, UK). […] Secondary goat anti-mouse and goat anti-rabbit antibodies were purchased from DAKO (Bollschweil, Germany).

T2 sequence (Q9UL15 whole entry, stated change not applied): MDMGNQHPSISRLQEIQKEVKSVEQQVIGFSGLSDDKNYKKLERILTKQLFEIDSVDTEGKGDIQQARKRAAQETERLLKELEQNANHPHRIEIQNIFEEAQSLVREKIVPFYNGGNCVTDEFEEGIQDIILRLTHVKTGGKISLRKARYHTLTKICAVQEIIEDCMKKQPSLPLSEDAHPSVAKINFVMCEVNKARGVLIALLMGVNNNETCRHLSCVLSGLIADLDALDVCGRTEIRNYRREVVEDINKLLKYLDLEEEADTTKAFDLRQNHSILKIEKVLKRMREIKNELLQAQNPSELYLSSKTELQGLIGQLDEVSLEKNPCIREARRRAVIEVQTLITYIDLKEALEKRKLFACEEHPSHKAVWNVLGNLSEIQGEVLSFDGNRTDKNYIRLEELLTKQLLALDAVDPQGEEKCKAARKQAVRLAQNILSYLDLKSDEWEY
T1 sequence (O95816 whole entry, stated change not applied): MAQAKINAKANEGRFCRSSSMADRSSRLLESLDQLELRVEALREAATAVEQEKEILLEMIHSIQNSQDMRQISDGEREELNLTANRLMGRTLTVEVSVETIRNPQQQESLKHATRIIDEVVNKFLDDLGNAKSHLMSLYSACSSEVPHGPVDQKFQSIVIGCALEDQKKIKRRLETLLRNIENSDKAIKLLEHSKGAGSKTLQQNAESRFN

Fc1ccc(-c2cn3cc(C(F)(F)F)cc(Cl)c3n2)cc1 [Compound X15695, 8-Chloro-2-(4-fluorophenyl)-6-(trifluoromethyl)imidazo[1,2-a]pyridine]
interaction of BAG2 with mutant p53 (BAG2 with mutant p53): disrupts the interaction of BAG2 | interaction of BAG5 with mutant p53 (BAG5 with mutant p53): not BAG5 | AR level (AR): did not strongly downregulate AR level

— patent EP4417202A1, “ANTI-CANCER ACTION OF BAG1-SELECTIVE IMIDAZOPYRIDINE COMPOUNDS IN STEROID HORMONE RECEPTOR-POSITIVE BREAST AND PROSTATE CANCER” (Karlsruher Institut für Technologie, priority 2023, dated 2024)
